{"source": "patent US20230416330A1", "about": "“Optimized GIP Peptide Analogues” (Antag Therapeutics ApS, priority 2019, published 2023)", "key": {"[1]": {"test": "Physical stability: fibril formation in Thioflavin T (ThT) assay with agitation", "assay_type": "physicochemical", "conditions": "TFA, 25° C., agitation", "summary_of_the_method": "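Peptides at 1, 5, 7.5 or 15 mg/ml in 50 mM sodium phosphate pH 7.4 or in water adjusted to pH 7.4 with NaOH, filtered 0.22 μm, with ThT added. Wells held a 3 mm silica bead under 300 rpm orbital agitation at 25° C. Emission at 486 nm tracked continuously; lag time = 10% of transition above baseline.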"}, "[2]": {"test": "Solubility by visual inspection of peptide solutions", "assay_type": "physicochemical", "conditions": "TFA", "summary_of_the_method": "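Peptides dissolved at 1, 5, 7.5 or 15 mg/ml in 50 mM sodium phosphate pH 7.4 or water adjusted to pH 7.4 with NaOH, with gentle mixing. Immediate solubility judged visually as a clear, colorless solution.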"}, "[3]": {"target": "T1, human GIP receptor (Homo sapiens, UniProt P48546)", "T1 construct": "host or cells: HEK-293 cells, transient transfection (Lipofectamine 2000), cDNA in pCMV-Script vector", "T1 sequence (P48546 22-466)": "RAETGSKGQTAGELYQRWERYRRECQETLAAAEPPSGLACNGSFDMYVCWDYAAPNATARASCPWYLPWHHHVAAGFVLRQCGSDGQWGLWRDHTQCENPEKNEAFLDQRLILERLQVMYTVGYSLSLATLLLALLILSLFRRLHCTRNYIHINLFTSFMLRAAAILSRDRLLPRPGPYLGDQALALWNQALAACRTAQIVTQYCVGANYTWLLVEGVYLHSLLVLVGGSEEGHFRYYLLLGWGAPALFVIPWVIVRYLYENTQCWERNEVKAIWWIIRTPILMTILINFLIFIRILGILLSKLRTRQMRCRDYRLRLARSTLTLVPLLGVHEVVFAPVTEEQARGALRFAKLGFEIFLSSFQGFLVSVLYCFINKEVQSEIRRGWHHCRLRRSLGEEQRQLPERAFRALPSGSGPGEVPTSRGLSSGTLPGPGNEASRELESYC", "test": "cAMP assay Alternative 3 (Schild analysis), antagonist potency pKb", "assay_type": "cell-based", "experimental": "Antagonist potency was also determined by Schild analysis. GIP1-42 EC50 was measured in the absence of antagonist and EC50′ was measured in the presence of increasing concentrations of antagonist. These values were used to calculate a dose ratio (DR=EC50′/EC50) for each antagonist concentration, and log(DR-1) was plotted against log(antagonist concentration).\nThe in vitro functional assessment of compounds towards human GIP receptor was determined in HEK-293 cells transiently expressing the receptor. On the day of the assay, cells were resuspended in HBSS buffer (Gibco, 14025-50) supplemented with […] (Gibco, 15630-106), 0.1% Pluronic F-68 (Gibco, 24040-032) and 0.1% casein (Sigma, C4765), and plated in 384-well plates at a density of 3500 cells/well. […] The intracellular cAMP was quantitatively determined using the CisBio cAMP Dynamic 2 HTRF Assay Kit. […]\nThe cAMP-d2 conjugate and the antibody anti-cAMP-Cryptate, both diluted in lysis buffer provided in the kit, were added to the cells according to the manufacturer's protocol. The resulting competitive assay was incubated for 60 minutes at room temperature, and the signal was detected by using a PerkinElmer Envision® instrument with excitation at 320 nm and emission at 665 nm and 620 nm. […]"}}, "note": "Starred links: 1 amine or outer side, 2 acyl side, 3 side chain; linkers in the order of their positions; H or OH if unused. Residues, ends and D or L forms follow the SMILES beside them. *: point of attachment. C16 diacid = O=C(O)CCCCCCCCCCCCCCC(=O)*; Glutaryl = O=C(CCCC(=O)[*:2])[*:1]", "data": [{"compound": "CC[C@H](C)[C@H](NC(=O)[C@H](CO)NC(=O)[C@H](Cc1ccc(O)cc1)NC(=O)[C@H](CC(=O)O)NC(=O)[C@H](CO)NC(=O)[C@@H](NC(=O)[C@H](Cc1ccccc1)NC(=O)[C@@H](NC(=O)CNC(=O)CCCC(=O)O)[C@@H](C)O)[C@@H](C)CC)C(=O)N[C@@H](C)C(=O)N[C@@H](CCSC)C(=O)N[C@@H](CC(=O)O)C(=O)N[C@@H](CCCCN)C(=O)N[C@H](C(=O)N[C@@H](CCCCNC(=O)CCCCCCCCCCCCCCC(=O)O)C(=O)N[C@@H](CCC(N)=O)C(=O)N[C@@H](CCC(N)=O)C(=O)N[C@@H](CC(=O)O)C(=O)N[C@@H](Cc1ccccc1)C(=O)N[C@H](C(=O)N[C@@H](CCC(=O)O)C(=O)N[C@@H](Cc1c[nH]c2ccccc12)C(=O)N[C@@H](CC(C)C)C(=O)N[C@@H](CC(C)C)C(=O)N[C@@H](C)C(=O)N[C@@H](CCC(N)=O)C(=O)N[C@@H](CCCCN)C(=O)N1CCC[C@H]1C(=O)N[C@@H](CO)C(=O)N[C@@H](CO)C(=O)NCC(=O)N[C@@H](C)C(=O)N1CCC[C@H]1C(=O)N1CCC[C@H]1C(=O)N1CCC[C@H]1C(=O)N[C@@H](CO)C(=O)O)C(C)C)[C@@H](C)CC", "note": "[AT762] (Glutaryl-GTFISDYSIAMDKIK(C16 diacid)QQDFVEWLLAQKPSSGAPPPS-OH)", "values": [{"measurement": "Avr lag time (h)", "setting": "[1]; 1 mg/ml, Phosphate (7.4)", "value": "fnd (Fnd = fibrils not detected within experiment time (96 hours) with agitation.)"}, {"measurement": "Avr lag time (h)", "setting": "[1]; 5 mg/ml, MilliQ", "value": "fnd (Fnd = fibrils not detected within experiment time (96 hours) with agitation.)"}, {"measurement": "Visual appearance", "setting": "[2]; 1 mg/ml, Phosphate (7.4)", "value": "Clear"}, {"measurement": "Visual appearance", "setting": "[2]; 5 mg/ml, MilliQ", "value": "Clear"}, {"measurement": "Kb", "setting": "[3]", "value": 0.15, "unit": "nM"}]}]}
